Data from ChEMBL document CHEMBL3885881, “DrugMatrix”.

Species on record: Rattus norvegicus
Assay: DrugMatrix - Regimen: Daily Repeat
Assay type: toxicity, organism-based, Sprague-Dawley
Design: regimen Daily Repeat, gender Male, age 6-8 weeks
Conditions: in vivo, po, 10 mg/kg, route oral GAVAGE, dose level Low, […]; for ABSOLUTE BASOPHIL / ABSOLUTE EOSINOPHIL / ABSOLUTE LYMPHOCYTE / ABSOLUTE MONOCYTE / ABSOLUTE SEGMENTED NEUTROPHIL / BASOPHIL / EOSINOPHIL / ERYTHROCYTE COUNT / HEMATOCRIT / HEMOGLOBIN / LEUKOCYTE COUNT / LYMPHOCYTE / MEAN CORPUSCULAR HEMOGLOBIN / MEAN CORPUSCULAR HEMOGLOBIN CONCENTRATION / MEAN CORPUSCULAR VOLUME / MONOCYTE / NEUTROPHIL / NUCLEATED RED BLOOD CELLS / PLATELET COUNT: tissue Blood; for ALANINE AMINOTRANSFERASE / ALBUMIN / ALKALINE PHOSPHATASE / ASPARTATE AMINOTRANSFERASE / BLOOD UREA NITROGEN / CARBON DIOXIDE / CHLORIDE / CHOLESTEROL / CREATINE PHOSPHOKINASE / CREATININE / GLUCOSE / LACTATE DEHYDROGENASE / LIPASE / PHOSPHORUS / POTASSIUM / SODIUM / TOTAL BILIRUBIN / TOTAL PROTEIN / URIC ACID: tissue Plasma

Question: How did the “ABSOLUTE BASOPHIL” value (72 h, time 3 day) turn out when COC(=O)Nc1nc2cc(C(=O)c3ccc(F)cc3)ccc2[nH]1 [FLUBENDAZOLE] was run?
Answer: 0 CELLS/uL

Question: What about the “ABSOLUTE EOSINOPHIL” value (72 h, time 3 day) of the same compound?
Answer: 47.67 CELLS/uL

Question: And the “ABSOLUTE LYMPHOCYTE” value (72 h, time 3 day)?
Answer: 13609.33 CELLS/uL

Question: And the “ABSOLUTE MONOCYTE” value (72 h, time 3 day)?
Answer: 47.67 CELLS/uL

Question: What about the “ABSOLUTE SEGMENTED NEUTROPHIL” value (72 h, time 3 day) of the same compound?
Answer: 1162 CELLS/uL

Question: And the BASOPHIL (72 h, time 3 day)?
Answer: 0%

Question: And the EOSINOPHIL (72 h, time 3 day)?
Answer: 0.33%

Question: And the “ERYTHROCYTE COUNT” value (72 h, time 3 day)?
Answer: 5.56 x10E6/uL

Question: What about the HEMATOCRIT (72 h, time 3 day) of the same compound?
Answer: 35.83%

Question: And the HEMOGLOBIN (72 h, time 3 day)?
Answer: 14.1 G/DL

Question: What about the “LEUKOCYTE COUNT” value (72 h, time 3 day) of the same compound?
Answer: 14.87 x10E3/uL

Question: And the LYMPHOCYTE (72 h, time 3 day)?
Answer: 91.33%

Question: And the “MEAN CORPUSCULAR HEMOGLOBIN” value (72 h, time 3 day)?
Answer: 25.37 pg

Question: What about the “MEAN CORPUSCULAR HEMOGLOBIN CONCENTRATION” value (72 h, time 3 day) of the same compound?
Answer: 39.33 G/DL

Question: What about the “MEAN CORPUSCULAR VOLUME” value (72 h, time 3 day) of the same compound?
Answer: 64.4 fL

Question: And the MONOCYTE (72 h, time 3 day)?
Answer: 0.33%

Question: And the NEUTROPHIL (72 h, time 3 day)?
Answer: 8%

Question: What about the “NUCLEATED RED BLOOD CELLS” value (72 h, time 3 day) of the same compound?
Answer: 0 /100WBC

Question: And the “PLATELET COUNT” value (72 h, time 3 day)?
Answer: 1248.33 x10E3/uL

Question: And the “ALANINE AMINOTRANSFERASE” value (72 h, time 3 day)?
Answer: 66.33 u/L

Question: And the ALBUMIN (72 h, time 3 day)?
Answer: 4.3 G/DL

Question: And the “ALKALINE PHOSPHATASE” value (72 h, time 3 day)?
Answer: 384.67 u/L

Question: And the “ASPARTATE AMINOTRANSFERASE” value (72 h, time 3 day)?
Answer: 89 u/L

Question: What about the “BLOOD UREA NITROGEN” value (72 h, time 3 day) of the same compound?
Answer: 14.67 mg/dL

Question: And the “CARBON DIOXIDE” value (72 h, time 3 day)?
Answer: 28.67 mmol/L

Question: And the CHLORIDE (72 h, time 3 day)?
Answer: 103.67 MEQ/L

Question: And the CHOLESTEROL (72 h, time 3 day)?
Answer: 73 mg/dL

Question: And the “CREATINE PHOSPHOKINASE” value (72 h, time 3 day)?
Answer: 180.67 u/L

Question: And the CREATININE (72 h, time 3 day)?
Answer: 0.2 mg/dL

Question: And the GLUCOSE (72 h, time 3 day)?
Answer: 149.33 mg/dL

Question: What about the “LACTATE DEHYDROGENASE” value (72 h, time 3 day) of the same compound?
Answer: 206 u/L

Question: What about the LIPASE (72 h, time 3 day) of the same compound?
Answer: 10.67 u/L

Question: And the PHOSPHORUS (72 h, time 3 day)?
Answer: 13.07 mg/dL

Question: And the POTASSIUM (72 h, time 3 day)?
Answer: 6.75 MEQ/L

Question: And the SODIUM (72 h, time 3 day)?
Answer: 148 MEQ/L

Question: What about the “TOTAL BILIRUBIN” value (72 h, time 3 day) of the same compound?
Answer: 0.17 mg/dL

Question: What about the “TOTAL PROTEIN” value (72 h, time 3 day) of the same compound?
Answer: 5.6 G/DL

Question: What about the “URIC ACID” value (72 h, time 3 day) of the same compound?
Answer: 2.37 mg/dL

Question: What about the “ABSOLUTE BASOPHIL” value (120 h, time 5 day) of the same compound?
Answer: 0 CELLS/uL

Question: And the “ABSOLUTE EOSINOPHIL” value (120 h, time 5 day)?
Answer: 0 CELLS/uL

Question: What about the “ABSOLUTE LYMPHOCYTE” value (120 h, time 5 day) of the same compound?
Answer: 11922.67 CELLS/uL

Question: What about the “ABSOLUTE MONOCYTE” value (120 h, time 5 day) of the same compound?
Answer: 87 CELLS/uL

Question: And the “ABSOLUTE SEGMENTED NEUTROPHIL” value (120 h, time 5 day)?
Answer: 723.67 CELLS/uL

Question: And the BASOPHIL (120 h, time 5 day)?
Answer: 0%

Question: And the EOSINOPHIL (120 h, time 5 day)?
Answer: 0%

Question: And the “ERYTHROCYTE COUNT” value (120 h, time 5 day)?
Answer: 5.65 x10E6/uL

Question: What about the HEMATOCRIT (120 h, time 5 day) of the same compound?
Answer: 34.27%

Question: What about the HEMOGLOBIN (120 h, time 5 day) of the same compound?
Answer: 13.7 G/DL

Question: And the “LEUKOCYTE COUNT” value (120 h, time 5 day)?
Answer: 12.73 x10E3/uL

Question: What about the LYMPHOCYTE (120 h, time 5 day) of the same compound?
Answer: 93.67%

Question: And the “MEAN CORPUSCULAR HEMOGLOBIN” value (120 h, time 5 day)?
Answer: 24.3 pg

Question: What about the “MEAN CORPUSCULAR HEMOGLOBIN CONCENTRATION” value (120 h, time 5 day) of the same compound?
Answer: 40.03 G/DL

Question: And the “MEAN CORPUSCULAR VOLUME” value (120 h, time 5 day)?
Answer: 60.63 fL

Question: And the MONOCYTE (120 h, time 5 day)?
Answer: 0.67%

Question: What about the NEUTROPHIL (120 h, time 5 day) of the same compound?
Answer: 5.67%

Question: What about the “NUCLEATED RED BLOOD CELLS” value (120 h, time 5 day) of the same compound?
Answer: 0.33 /100WBC

Question: And the “PLATELET COUNT” value (120 h, time 5 day)?
Answer: 1117 x10E3/uL

Question: What about the “ALANINE AMINOTRANSFERASE” value (120 h, time 5 day) of the same compound?
Answer: 57.33 u/L

Question: What about the ALBUMIN (120 h, time 5 day) of the same compound?
Answer: 4.23 G/DL

Question: What about the “ALKALINE PHOSPHATASE” value (120 h, time 5 day) of the same compound?
Answer: 373.33 u/L

Question: And the “ASPARTATE AMINOTRANSFERASE” value (120 h, time 5 day)?
Answer: 85.33 u/L

Question: What about the “BLOOD UREA NITROGEN” value (120 h, time 5 day) of the same compound?
Answer: 15.67 mg/dL

Question: And the “CARBON DIOXIDE” value (120 h, time 5 day)?
Answer: 23.33 mmol/L

Question: And the CHLORIDE (120 h, time 5 day)?
Answer: 105 MEQ/L

Question: What about the CHOLESTEROL (120 h, time 5 day) of the same compound?
Answer: 58.67 mg/dL

Question: And the “CREATINE PHOSPHOKINASE” value (120 h, time 5 day)?
Answer: 240.33 u/L

Question: And the CREATININE (120 h, time 5 day)?
Answer: 0.22 mg/dL

Question: And the GLUCOSE (120 h, time 5 day)?
Answer: 160.33 mg/dL

Question: What about the “LACTATE DEHYDROGENASE” value (120 h, time 5 day) of the same compound?
Answer: 156.67 u/L

Question: And the LIPASE (120 h, time 5 day)?
Answer: 9.33 u/L

Question: What about the PHOSPHORUS (120 h, time 5 day) of the same compound?
Answer: 12.1 mg/dL

Question: What about the POTASSIUM (120 h, time 5 day) of the same compound?
Answer: 7.18 MEQ/L

Question: What about the SODIUM (120 h, time 5 day) of the same compound?
Answer: 146.47 MEQ/L

Question: What about the “TOTAL BILIRUBIN” value (120 h, time 5 day) of the same compound?
Answer: 0.2 mg/dL

Question: What about the “TOTAL PROTEIN” value (120 h, time 5 day) of the same compound?
Answer: 5.97 G/DL

Question: And the “URIC ACID” value (120 h, time 5 day)?
Answer: 1.9 mg/dL
